Reference: patent US20030031658A1, “Targeting of endosomal growth factor processing as anti-cancer therapy” (priority 1999, published 2003)

How the values were obtained:
human IGF-I receptor = experiment: Fluorocytometry of cell surface IGF-1 receptors with mAb αIR3, MCF-7; type: cell-based
Procedure: (§1) The ligand-binding assay and fluorocytometry were used to measure cell surface IGF-1 receptors on the murine H-59 and human MCF-7 cells, respectively. […] Incubation was for 1 h at 37° C. following which the cells were rinsed and lysed in 0.01 N NaOH containing 0.1% Triton X-100 and 0.1% SDS and the radioactivity measured. The number of cells/plate at the time of the assay was determined from triplicate control wells which were manipulated in a similar manner. The Ligand program (27, 28) was used to calculate the number of IGF-1 binding sites per cell. IGF-1 receptors on MCF-7 cells were immunofluorescence labeled using 5 μg/ml mAb αIR3 and an FITC-conjugated goat anti-mouse IgG (diluted 1:50). […] Labeled cells were fixed in PBS containing 1% formalin and analyzed using a FACS Calibur System (Becton-Dickinson, San Jose, Calif.).

[1] = tested on: IGF-IR β subunit and substrates; experiment: Immunoprecipitation and anti-phosphotyrosine Western blot, H-59; type: cell-based, murine
Procedure: (§2) Cells were then washed with PBS, solubilized in 30 mM Hepes pH 7.4, 150 mM NaCl, 1% Triton X-100, and spun at maximal speed in a microfuge for 15 min. Cell lysates (1 to 3 mg) were then immunoprecipitated respectively with anti-Shc, anti-IRS-1 or anti-IGF-IR antibodies overnight at 4° C. Immunoprecipitates were collected by addition of Protein A-Sepharose beads, washed three times with lysis buffer and resuspended finally in Laemmli sample buffer (Long et al 1986a). Immunoprecipitates were resolved by SDS-PAGE and transferred onto nitrocellulose membranes followed by immunoblotting with anti-phosphotyrosine antibodies or with antibodies to IRS-1, Shc or IGF-1R followed by HRP—conjugated goat anti-mouse or goat anti-rabbit IgG antibodies.

[2] = tested on: IGF-I binding sites on H-59 cells; experiment: Ligand-binding assay of cell surface IGF-1 receptors, H-59; design: species or system murine
Procedure: as §1

MCF-7 cells = experiment: IGF-I induced thymidine incorporation with E-64, MCF-7; type: cell-based, human
[3] = tested on: endosomal IGF-I proteolysis; experiment: IGF-1 proteolysis assay, liver endosomal extract; type: biochemical, rat
Procedure: H-59 is a highly metastatic subline of the Lewis lung carcinoma with metastatic predilection for the liver, (Brodt et al 1986). Human breast carcinoma cell line MCF-7 was a gift from Dr. Mader (Dept of Biochemistry, University of Montreal, PQ, Canada). Endosomal fractions were prepared from livers of male Sprague-Dawley rats after an 18 h period of fasting. The livers were homogenized and the endosomal fractions isolated by discontinuous sucrose gradient centrifugation and collected at the 0.25 M to 1.0 M sucrose interface (20, 21, 24). The soluble extract (ENs) from the endosomal fractions was isolated by freeze/thawing in 5 mM Na-phosphate pH 7.4, and disrupted in the same hypotonic medium using a small Dounce homogenizer (15 strokes with the tight Type A pestle) followed by centrifugation at 300,000×gav for 30 min as described previously (20, 21, 24).
These preparations were incubated for various lengths of time at 37° C. with 10-^6 M unlabeled or 50,000 cpm [^125I]-labeled IGF-1 in 200 or 400 μl of 50 mM citrate-phosphate pH 5, respectively. The integrity of the radiolabeled ligand was assessed by precipitation with 10% trichloroacetic acid (Authier et al, 1995). […] Eluates were monitored on-line for absorbance at 214 nm with a LC spectrophotometer.

H-59 tumor cells = settings: in vivo; cited from earlier work
MMP-2 = experiment: IGF-1-mediated induction of MMP-2 synthesis (Northern, Western, zymography); type: cell-based, murine
Description: This medium was replenished on alternate days for 12 days. […] Blots were probed with a 1:500 dilution of mAb Ab-45 to MMP-2 and an alkaline phosphatase conjugated affinity purified, goat anti rabbit IgG, diluted 1:2000. For Northern blotting, a ^32P-labeled 1.1-Kb human MMP-2 and an 800-bp rat cyclophilin cDNA fragment were used as hybridization probes.

[4] = tested on: IGF-IR β subunit and substrates; experiment: Immunoprecipitation and anti-phosphotyrosine Western blot, MCF-7; type: cell-based, human
Procedure: as §2

IGF-IR = IGF-IR mRNA and total immunoprecipitable receptor levels; type: cell-based; settings: H-59 and MCF-7
Procedure: as §2

H-59 cells = experiment: IGF-I induced thymidine incorporation with E-64, H-59; type: cell-based, murine
[5] = tested on: IGF-I proteolysis in H-59 and MCF-7 cell lysates; experiment: IGF-1 proteolysis assay, tumor cell lysates; type: biochemical
Procedure: These preparations were incubated for various lengths of time at 37° C. with 10-^6 M unlabeled or 50,000 cpm [^125I]-labeled IGF-1 in 200 or 400 μl of 50 mM citrate-phosphate pH 5, respectively. The integrity of the radiolabeled ligand was assessed by precipitation with 10% trichloroacetic acid (Authier et al, 1995). To measure proteolysis of the unlabeled IGF-1, the samples were acidified with acetic acid (15%) and immediately loaded onto a reverse-phase HPLC column. Reverse-phase HPLC was performed on a Waters model 600 liquid chromatograph equipped with a model U6K sample injector fitted with a […] and a mBondapak C18 column (Waters, 0.39×30 cm, […]). Samples were chromatographed using as eluent a mixture of 0.1% TFA in water (solvent A) and 0.1% TFA in acetonitrile (solvent B) with a flow rate of 1 ml/min. Elution was carried out using two sequential linear gradients followed by an isocratic elution: an initial gradient of 0-20% solvent B (30 min); a second gradient of 20-39% solvent B (15 min); and a third isocratic elution of 39% solvent B (15 min). Eluates were monitored on-line for absorbance at 214 nm with a LC spectrophotometer.

## CC(C)C[C@H](NC(=O)[C@H]1O[C@@H]1C(=O)O)C(=O)NCCCCN=C(N)N (relative stereo) [E-64, trans-epoxysuccinyl-L-leucylamido (4-guanidino)-butane]
Human IGF-I receptor; MCF-7, 40 min after addition of ligand
  reduction in the number of immunolabeled cells: 45%
Human IGF-I receptor; MCF-7, 40 min after addition of ligand (declining from 255)
  mean intensity of fluorescence: 82
[1]
  ligand-induced tyrosine phosphorylation of p52shc: increase
[2]; H-59, E-64 treated (untreated 3.9×10^5)
  number of IGF-I binding sites: 1.8×10^5 sites/cell
[2]; H-59, E-64 treated vs untreated
  reduction of the number of IGF-I binding sites: more than 2 fold
MCF-7 cells; MCF-7
  incorporation of 3H-thymidine in response to IGF-I: completely abrogated
MCF-7 cells; MCF-7, E-64 10 μg/ml
  IGF-I induced proliferation: abolished
[3]; endosomal fractions, radioiodinated IGF-I, 1 hr
  increase in TCA-soluble radioactivity over time (IGF-I proteolysis): completely abolished
[3]; liver parenchymal endosomal fractions, acidic pH
  IGF-I degradation products by reverse phase HPLC: absent following E-64 treatment
H-59 tumor cells
  liver colonization by H-59 tumor cells: inhibited liver colonization
MMP-2; H-59, E-64 10 μg/ml
  reduction of MMP-2 mRNA synthesis: 2 fold
MMP-2; Western blotting and gelatin zymography, E-64 10 μg/ml
  MMP-2 production and activity: decreased MMP-2 production and activity
[4]
  tyrosine phosphorylated IRS-1: increase
IGF-IR
  IGF-IR mRNA levels: In neither of these cell types did E-64 treatment cause a reduction
H-59 cells; H-59
  incorporation of 3H-thymidine in response to IGF-I: completely abrogated
H-59 cells; H-59, E-64 10 μg/ml
  IGF-I induced proliferation: abolished
[5]; cell lysates, radioiodinated IGF-I, 1 hr
  increase in TCA-soluble radioactivity over time (IGF-I proteolysis): completely abolished
[5]; lysates of E-64-treated tumor cells, acidic pH
  IGF-I degradation products by reverse phase HPLC: absent following E-64 treatment
